Assay results as given in patent US20200407683A1, “IN VITRO IMMUNE SYNAPSE SYSTEM AND METHOD OF IN VITRO […] RESPONSE USING THE SAME” (National Pingtung University of Science and Technology, priority 2018, published 2020).

Test system: IL-2
Assay: In vitro immune synapse system, immune adjuvant immunostimulation: IL-2 level
Type: cell-based, pig
Conditions: 2 μg/well poly IC, in comparison to IL-18 (0.1 ng/well); Treg/APC system; FIG. 5; P<0.05
Procedure: In this Example, a commercial kit of porcine IL-2 and IL-10 was used for quantifying the IL-2 and IL-10 levels in the porcine cell supernatant. According to the steps of the specification provided in the kit, the standard liquid provided by the kit was diluted for later use, and a flow was described briefly below. Firstly, 100 μL of sample or diluted standard liquid was added into a 96-well plate and incubated for 1 hour. Next, 200 μL of biotinylated antibody reagent was added into the 96-well plate and incubated for another hour. […] Afterwards, 100 μL of stop solution was added to terminate the reaction in order to measure the absorbance. […]
Generally, the absorbance could be read by a commercial continuous spectrophotometer at a wavelength of 450/540 nm, and a standard curve was established by serially-diluted standard solution of various concentrations versus respective absorbances. Then, the cell cytokine concentration of each sample was calculated according to the regression equation of the standard curve, and a commercially statistical software (such as a SAS statistical program) was used to calculate significant difference between the means of all groups, as shown by the results of FIGS. 3A to 3B. […]

Substance: poly-IC
- IL-2 level in the immunological synapse: significantly improve
